# Laboratory results as given in PMC5700813, “A recombinant BBSome core complex and how it interacts with ciliary cargo” (eLife, 2017).
# “Also recorded” adds a separate entry of the source. Ends that are not written are not given here. Peptide text beside a SMILES is read from it.
# Tested on: T1, core BBSome (BBS1,4,5,8,9,18)
# T1 construct: His-tag; made in house; host or cells: Hi5 insect cells (baculovirus)
# Experiment: Fluorescence polarization binding of fluorescently labeled peptides to the core BBSome
# Design: species or system human
# Conditions: not given
# Description: Our microarray data indicated multiple closely spaced binding epitopes in several cases. Where possible, we combined those epitopes into a single fluorescent peptide with up to 37 residues length to more fully reflect the binding site/motif. […] Cargo binding to the core BBSome with fluorescence polarization, measured by using fluorescently labeled peptides and the purified core BBSome. […] All peptides were N-terminally labeled with fluorescein, with an exception of a C-terminally TMR-labeled SSTR3 CT1 peptide (orange squares) that was used as a control to exclude nonspecific binding events due to the used fluorophore. […] (Data points exceeding this mark might indicate secondary binding events at high BBSome concentrations). (C) Fluorescent peptides from the C-terminus of Smo (Smo CT1-4) and a truncated Smoothened construct (Smo […]-[…]) were analyzed as described above. (D) The peptide SSTR3 CT2 that bound with highest affinity to the core BBSome was used as a template for the design and analysis of mutant peptides (SSTR3 CT3-9) with substitutions of one or multiple residues as indicated. Polarization experiments were performed as described above and dissociation constants (KD) are presented as ratios to the KD of the wild type peptide as a bar diagram. (E) Bar diagram of the relative affinities of SmoCT1 and CT3 relative to SmoCT4, as determined in C, and of mutant Smo CT4 peptides with substitutions as indicated. […] Cargo binding to the core BBSome. […] Core BBSome was added at the indicated concentrations and the increase in fluorescence polarization was monitored as a measure for the peptides binding to the protein complex. […] Mutational analysis of the BBSome binding peptides. […] The peptides SSTR3 CT2 (A) and of Smo CT4 (B) that bound with highest affinity to the core BBSome were used as templates for the design of mutant peptides with one or multiple aromatic/basic residue motifs changed to alanines as summarized in Table 1. Core BBSome was added at the indicated concentrations and the increase in fluorescence polarization was monitored as a measure for the peptides binding to the protein complex. […] Fluorescently labeled peptides were purchased from Proteogenix (Proteogenix SAS, France). Fluorescein-labels are located N-terminally to the peptide sequence and TAMRA at the C-terminal side. Fluorescence polarization experiments were performed using a Fluoromax-4 spectrophotometer (HORIBA Jobin Yvon, Germany) or a Safire two multimode plate reader (Tecan, Switzerland). Fluoresceine-labeled samples were measured with excitation/emission wavelengths of λEx = 490 nm and λEm = 520 nm with a bandwidth of 7 nm on the Fluoromax-4. […] Sample volumes were 20 μl in a 1,5 × 1,5 mm cuvette (Hellma Analytics, Germany) for the Fluoromax-4 and 4.5 μl in a 384 well low-binding plate (Corning, Germany). Data analysis was done with the Origin 9.0 program suite (Originlab, Northampton, MA). The polarization curves were fit against the function FI = Fmin […] Fmax corresponding to the fluorescence polarization signal and the signal of unbound and completely saturated fluorescent molecule E with interaction partner L, respectively. The concentrations of molecule E are indicated in the corresponding figure legends, and the calculated dissociation constants KD are listed in Table 1.
# T1 sequence (Q8NFJ9 whole entry, stated change not applied): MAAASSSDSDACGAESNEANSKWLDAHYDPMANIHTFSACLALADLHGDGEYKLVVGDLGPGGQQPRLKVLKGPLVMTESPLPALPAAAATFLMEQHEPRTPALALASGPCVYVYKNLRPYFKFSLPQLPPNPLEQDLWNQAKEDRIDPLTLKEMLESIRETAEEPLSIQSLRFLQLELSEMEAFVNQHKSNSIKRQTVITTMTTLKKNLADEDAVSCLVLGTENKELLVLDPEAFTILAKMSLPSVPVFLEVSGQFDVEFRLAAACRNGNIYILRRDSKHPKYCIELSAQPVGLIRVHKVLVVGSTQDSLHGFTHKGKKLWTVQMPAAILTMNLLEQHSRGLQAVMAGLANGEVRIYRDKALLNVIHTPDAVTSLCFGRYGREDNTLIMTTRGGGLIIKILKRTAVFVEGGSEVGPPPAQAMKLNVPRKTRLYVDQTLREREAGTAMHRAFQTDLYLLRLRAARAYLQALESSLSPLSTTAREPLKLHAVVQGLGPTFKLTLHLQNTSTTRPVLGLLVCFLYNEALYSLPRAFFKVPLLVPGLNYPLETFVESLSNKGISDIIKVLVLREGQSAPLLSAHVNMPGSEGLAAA
# T1 sequence (Q96RK4 whole entry, stated change not applied, further chain): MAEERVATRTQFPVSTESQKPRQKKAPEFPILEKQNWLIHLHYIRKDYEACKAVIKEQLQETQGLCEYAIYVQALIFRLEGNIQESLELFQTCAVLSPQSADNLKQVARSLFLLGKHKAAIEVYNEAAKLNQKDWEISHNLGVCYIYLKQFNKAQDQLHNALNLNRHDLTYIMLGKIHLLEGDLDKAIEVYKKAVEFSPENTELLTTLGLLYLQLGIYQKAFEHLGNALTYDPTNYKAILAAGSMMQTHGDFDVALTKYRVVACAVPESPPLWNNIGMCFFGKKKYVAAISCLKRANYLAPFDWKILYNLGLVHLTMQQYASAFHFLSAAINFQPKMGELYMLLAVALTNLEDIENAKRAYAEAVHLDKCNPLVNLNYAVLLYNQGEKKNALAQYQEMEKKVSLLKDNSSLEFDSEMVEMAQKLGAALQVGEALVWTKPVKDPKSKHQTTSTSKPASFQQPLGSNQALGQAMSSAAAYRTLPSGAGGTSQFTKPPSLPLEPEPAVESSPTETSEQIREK
# T1 sequence (Q8N3I7 whole entry, stated change not applied, further chain): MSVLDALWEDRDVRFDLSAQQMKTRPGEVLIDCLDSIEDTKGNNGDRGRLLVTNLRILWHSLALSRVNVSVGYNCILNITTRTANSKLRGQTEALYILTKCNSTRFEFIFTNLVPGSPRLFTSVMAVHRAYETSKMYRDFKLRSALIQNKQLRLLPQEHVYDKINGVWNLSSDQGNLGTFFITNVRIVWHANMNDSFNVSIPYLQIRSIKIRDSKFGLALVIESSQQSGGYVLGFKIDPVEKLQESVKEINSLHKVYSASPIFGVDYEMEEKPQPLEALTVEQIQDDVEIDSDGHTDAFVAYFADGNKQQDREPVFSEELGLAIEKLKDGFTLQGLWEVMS
# T1 sequence (Q8TAM2 with tags, fused parts or gaps isoform Q8TAM2-4 DEL39-48, further chain): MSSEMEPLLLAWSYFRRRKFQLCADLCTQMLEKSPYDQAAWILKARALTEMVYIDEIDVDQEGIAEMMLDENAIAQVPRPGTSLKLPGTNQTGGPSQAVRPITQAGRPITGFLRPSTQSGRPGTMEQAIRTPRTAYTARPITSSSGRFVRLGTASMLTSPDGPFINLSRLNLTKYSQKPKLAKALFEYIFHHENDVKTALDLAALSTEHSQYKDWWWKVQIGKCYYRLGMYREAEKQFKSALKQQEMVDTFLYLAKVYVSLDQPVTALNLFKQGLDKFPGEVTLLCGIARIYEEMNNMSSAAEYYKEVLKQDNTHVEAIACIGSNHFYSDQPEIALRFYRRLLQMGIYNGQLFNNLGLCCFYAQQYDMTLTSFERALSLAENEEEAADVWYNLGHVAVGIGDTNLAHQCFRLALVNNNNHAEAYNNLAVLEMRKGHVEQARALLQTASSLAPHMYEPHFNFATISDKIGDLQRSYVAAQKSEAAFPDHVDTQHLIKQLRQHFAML
# T1 sequence (Q3SYG4 whole entry, stated change not applied, further chain): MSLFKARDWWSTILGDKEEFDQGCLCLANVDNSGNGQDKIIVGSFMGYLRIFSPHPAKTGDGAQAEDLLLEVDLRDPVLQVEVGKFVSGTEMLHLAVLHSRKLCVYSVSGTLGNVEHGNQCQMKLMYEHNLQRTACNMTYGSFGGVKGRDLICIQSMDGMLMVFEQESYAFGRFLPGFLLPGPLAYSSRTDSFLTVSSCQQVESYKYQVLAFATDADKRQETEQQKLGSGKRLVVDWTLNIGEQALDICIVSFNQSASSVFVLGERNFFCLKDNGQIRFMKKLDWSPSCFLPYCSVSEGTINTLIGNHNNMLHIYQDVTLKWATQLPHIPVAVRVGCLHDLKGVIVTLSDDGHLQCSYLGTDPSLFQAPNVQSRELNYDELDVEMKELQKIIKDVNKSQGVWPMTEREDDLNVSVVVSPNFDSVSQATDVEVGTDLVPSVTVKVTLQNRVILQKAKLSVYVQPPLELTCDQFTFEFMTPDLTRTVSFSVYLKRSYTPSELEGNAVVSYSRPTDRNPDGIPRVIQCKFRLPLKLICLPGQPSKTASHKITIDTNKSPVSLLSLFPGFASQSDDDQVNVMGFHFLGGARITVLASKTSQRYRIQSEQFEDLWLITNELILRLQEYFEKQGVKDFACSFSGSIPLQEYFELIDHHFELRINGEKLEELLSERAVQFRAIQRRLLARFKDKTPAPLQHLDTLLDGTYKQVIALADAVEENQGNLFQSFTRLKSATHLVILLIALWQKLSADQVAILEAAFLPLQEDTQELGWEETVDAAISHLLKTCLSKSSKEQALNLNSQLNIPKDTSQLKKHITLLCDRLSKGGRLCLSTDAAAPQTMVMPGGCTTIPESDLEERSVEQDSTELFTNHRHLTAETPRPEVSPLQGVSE
# T1 sequence (A8MTZ0 whole entry partner): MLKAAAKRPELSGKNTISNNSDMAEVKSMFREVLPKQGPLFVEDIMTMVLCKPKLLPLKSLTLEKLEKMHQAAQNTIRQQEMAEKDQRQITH
row,Molecule,binding to core BBSome (result in words)
1,KRIKKSKMIAKAFSK [Smo CT2],only weak interaction

# Same assay, conditions: N-terminally fluorescein-labeled peptide 0.1–1 µM titrated with purified core BBSome, fitted to binding curve
row,Molecule,Kd [µM]
1,TLLIAARTAARLTGQSDDE [Smo CT7],14.3

# Same assay, conditions: N-terminally fluorescein-labeled peptide 0.1–1 µM titrated with purified core BBSome, fitted to binding curve, read-out: KD (converted)
row,Molecule,Kd [µM]
1,CC(C)C[C@H](NC(=O)[C@H](C)NC(=O)[C@H](CCCNC(=N)N)NC(=O)[C@H](CCCCN)NC(=O)[C@H](Cc1ccccc1)NC(=O)[C@H](CC(=O)O)NC(=O)[C@@H](N)CCCNC(=N)N)C(=O)NCC(=O)N[C@@H](CCCNC(=N)N)C(=O)N[C@@H](Cc1ccccc1)C(=O)N[C@@H](CC(C)C)C(=O)N1CCC[C@H]1C(=O)N[C@@H](CS)C(=O)N1CCC[C@H]1C(=O)N[C@@H](CCCNC(=N)N)C(=O)N[C@@H](CS)C(=O)N1CCC[C@H]1C(=O)N[C@@H](CCCNC(=N)N)C(=O)N[C@@H](CCC(=O)O)C(=O)N[C@@H](CCCNC(=N)N)C(=O)O [5HT6 CT] (H-RDFKRALGRFLPCPRCPRER-OH),44.2 ± 10.9
2,FIFRVARVKARKVHCG [GPR161 3ICL],6.3 ± 1.5
3,GFLSAAAAQGAARVLLRPSRRVRS [SSTR3 CT8],11
4,GFLSAAAAQGFRRVLLRPSRRVRS [SSTR3 CT7],1
5,GFLSAAFKQGAARVLLRPSRRVRS [SSTR3 CT6],4.5
6,GFLSAAFKQGFRRVLLRPSRRVRS [SSTR3 CT3],1.1
7,GFLSYRAAQGFRRVLLRPSRRVRS [SSTR3 CT4],0.4
8,GFLSYRFKQGAARVLLRPSRRVRS [SSTR3 CT5],1.5
9,GFLSYRFKQGFRRVLLRPSEEVES [SSTR3 CT9],4.7
10,GFLSYRFKQGFRRVLLRPSRRVRS [SSTR3 CT2],0.11
11,"GRGSAAARSRYTCRLQQHDRGRRQ [NMU 3ICL2, N-terminally fluorescein-labeled peptide from the third intracellular loop of NMU-R1]",> 100
12,KRIKKSKMIAKAFSK [Smo CT2],> 100
13,KRLGRKKKRRKRKKE [Smo CT8],6.8
14,LLIGLRLRRERLLLMQEAKGRG [NMU 3ICL1],18.1 ± 1.6
15,NKTVRKELLGMCFGDRYYREPFVQRQR [GPR161 CT1],67.4 ± 7.3
16,RFKQGFRRVLLRPSR [SSTR3 CT1],22.1 ± 1.4
17,RILQRMTSSVAPASQRSIRLRTKRVTRT [MCH 3ICL],68.8 ± 11.3
18,TLLIAARTWCRLTGQSDDE [Smo CT5],9.7
19,TLLIWRRTAARLTGQSDDE [Smo CT6],12.5
20,TLLIWRRTWCRLTGQ [Smo CT1],1.8 ± 0.5
21,TLLIWRRTWCRLTGQSDDE [Smo CT4],1.1
22,TLLIWRRTWCRLTGQSDDEPKRIKKSKMIAKAFSKRH [Smo CT3],1.4
23,VKVRSAGRRVWAPSCQRRRRSERRVTRM [SSTR3 3ICL],12.8 ± 1.07
24,"VTARTVPGGGFGGRRGSRTLVS [GPR161 CT2, N-terminally fluorescein-labeled peptide from the C-terminal region of GPR161]",> 100

# Tested on: core BBSome
# Experiment: Pulldown of core BBSome with immobilized bait on Streptactin beads
# Format: binding, human
# Conditions: 7.5 fold molar excess of bait immobilized to Streptactin-coupled Sepharose beads
# Description: From previous data, BBS1 seems to be the BBSome subunit most relevant for cargo recognition and Arl6 binding. We first tested the binding of Arl6 to the BBSome core complex. […] To test whether the core BBSome can recognize known BBSome cargo proteins, we generated a truncated (residues R546-L665) version of the Smo receptor, which contains a ciliary targeting motif predicted to interact with the BBSome ([Zhang et al., 2012a]; [Seo et al., 2011]; [Corbit et al., 2005]). In pulldown experiments as described above (Figure 3), the binding was clearly detectable, but considerably weaker than that of Arl6•GppNHp. In fluorescence polarization experiments (see below), we determined the affinity for a fluoresceine-labeled version of this Smo fragment to be 36.1 ± 3.9 µM.
# Figure 3. Pulldown of core BBSome with immobilized Arl6 and Smoothened domain R546-L665. Purified core BBSome samples were pulled down by a 7.5 fold molar excess of Arl6•GDP, Arl6•GppNHp or Smo(R546-L665) immobilized to Streptactin-coupled Sepharose beads. […] Smo(R546-L665) bound weaker, but still captured >2% of the BBSome sample. This was approximated by a comparison of the 1:50 diluted Arl6•GppNHp elution with the undiluted Smo(R546-L665) elution in a Flag-blot against Flag-BBS8 from the BBSome core complex.
# Pulldown assays were performed using 20 µl Strep-Tactin Superflow high capacity resin (IBA, Germany) per assay equilibrated with pulldown buffer (50 mM Hepes pH 8.0, 150 mM NaCl, 5 mM MgCl2, 5 mM ß-ME and 0.05% DDM). Smo(R546-L665, N-terminal Strep-tag) and Arl6 (residues 17–186, Q73L, C-terminal Strep-tag, with the nucleotide exchanged to either GDP or GppNHp) was immobilized as the bait, and the 6mer BBSome core complex served as the prey (The dual-Strep-tag on BBS18 within the complex was completely removed by Prescission protease cleavage for this experiment). 35 µg of the bait proteins were incubated with the beads in 1 ml pulldown buffer at 4°C for 1 hr, and the unbound protein was washed away with 3 × 1 ml pulldown buffer. […]
row,Molecule,pulldown of core BBSome (result in words)
1,"Arl6•GppNHp: Arl6 (residues 17–186, Q73L, C-terminal Strep-tag) with the nucleotide exchanged to GppNHp (protein, left off: Strep-tag, C-terminal, kept, Arl6 (residues 17–186, Q73L, C-terminal Strep-tag) with the nucleotide exchanged to GppNHp) EVHVLCLGLDNSGKTTIINKLKPSNAQSQNILPTIGFSIEKFKSSSLSFTVFDMSGLGRYRNLWEHYYKEGQAIIFVIDSSDRLRMVVAKEELDTLLNHPDIKHRRIPILFFANKMDLRDAVTSVKVSQLLCLENIKDKPWHICASDAIKGEGLQEGVDWLQDQIQTVKT",precipitated the major part of the BBSome
2,"Arl6•GDP: Arl6 (residues 17–186, Q73L, C-terminal Strep-tag) with the nucleotide exchanged to GDP (protein, left off: Strep-tag, C-terminal, kept, Arl6 (residues 17–186, Q73L, C-terminal Strep-tag) with the nucleotide exchanged to GDP) EVHVLCLGLDNSGKTTIINKLKPSNAQSQNILPTIGFSIEKFKSSSLSFTVFDMSGLGRYRNLWEHYYKEGQAIIFVIDSSDRLRMVVAKEELDTLLNHPDIKHRRIPILFFANKMDLRDAVTSVKVSQLLCLENIKDKPWHICASDAIKGEGLQEGVDWLQDQIQTVKT",no detectable affinity; also recorded: no interaction

# Same assay, conditions: 7.5 fold molar excess of bait immobilized to Streptactin-coupled Sepharose beads; listed as Arl6•GppNHP
row,Molecule,pulldown of core BBSome (result in words)
1,"Arl6•GppNHp: Arl6 (residues 17–186, Q73L, C-terminal Strep-tag) with the nucleotide exchanged to GppNHp (protein, left off: Strep-tag, C-terminal, kept, Arl6 (residues 17–186, Q73L, C-terminal Strep-tag) with the nucleotide exchanged to GppNHp) EVHVLCLGLDNSGKTTIINKLKPSNAQSQNILPTIGFSIEKFKSSSLSFTVFDMSGLGRYRNLWEHYYKEGQAIIFVIDSSDRLRMVVAKEELDTLLNHPDIKHRRIPILFFANKMDLRDAVTSVKVSQLLCLENIKDKPWHICASDAIKGEGLQEGVDWLQDQIQTVKT",captured most of the BBSome sample
